# Measured values as given in US7842700B2, “Crystals of isopropyl ester of N-(2,6-dichlorobenzoyl)-4-[6-(methylamino)methyl-1-methyl-2,4-dioxo-1,4-dihydroquinazoline-3(2H)-yl]-L-phenylalanine hydrochloride, production method thereof and use thereof” (Ajinomoto Co., Inc., priority 2005, dated 2010).
# What was measured:
# [1] = test system: lymphocytes in the peripheral blood; experiment: Activity to elevate the number of lymphocytes in the peripheral blood in a rat; assay type: in vivo; settings: 30 mg/kg oral, male Wistar rats, 12 hours after administration, control = 100%
# Method: Activity to Elevate the Number of Lymphocytes in the Peripheral Blood in a Rat
# Therefore, the activity of the compound of the formula (I) to elevate the number of lymphocytes in the rat was examined.
# The dosing solution was prepared by dissolving the compound of the formula (I) in dimethylsulfoxide, adding a mixed solution of polyethylene glycol 400: propylene glycol=1:1 thereto and turning it upside and down repeatedly. The final concentration of DMSO was adjusted to 2.5%.
# The dosing solution of a test substance (30 mg/kg) was orally administered to male Wistar rats (6 to 8 weeks age) in the amount of 4 mL/kg. After the settled time points after the administration, the blood was drawn from the abdominal large vein under anesthesia and mixed in an EDTA-2K coated container for blood collection. Then, the number of lymphocytes in the peripheral blood was determined by an automated comprehensive hematology analyzer (SF-3000, Sysmex). The test was conducted in n=5, and the ratio (%) of the number of lymphocytes in the peripheral blood in a test substance-administered group to that in a vehicle-treated group (a control group) was calculated while the average value of the number of lymphocytes in the peripheral blood in a control group was determined to be 100%.
# [2] = Preservation stability test; assay type: physicochemical; settings: 4 weeks; 40° C./75% relative humidity opened, 60° C./opened, vs room temperature/closed control
# Method: Preservation Stability Test
# Crystal form Cl5, crystal form Br5 and crystal form A were preserved in the following condition, and then the amount of impurities in each sample was compared. However, the increase in the impurities by heating was not observed.
# • 40° C./75% relative humidity—opened • 60° C./opened • Room temperature/closed (control)
# [3] = Powder X-ray diffraction measurement under the control of relative humidity; assay type: physicochemical; settings: dry: 50° C. under reduced pressure; wet: 85% relative humidity
# Method: Powder X-Ray Diffraction Measurement Under the Control of Relative Humidity
# The powder X-ray diffraction of each of crystal form Cl5 and crystal form Mal2 was measured in the following condition, and the diffraction patterns between dry one and wet one were compared. However, there was no difference thereof in each crystal.
# Drying condition (dry): measurement of a sample with drying it at 50° C. under reduced pressure
# Humid condition (wet): measurement of a sample under 85% relative humidity
# Powder diffractometer: RINT2100S by RIGAKU (and a temperature and humidity attachment for said diffractometer) Humidity generator: SRH-1R Shinei Co., Inc.
increase in the impurities by heating [2],difference of powder X-ray diffraction patterns between dry and wet [3],Compound,ratio (%) of the number of lymphocytes in the peripheral blood to that in a vehicle-treated group [1] [%]
–,–,"CNCc1ccc2c(c1)c(=O)n(-c1ccc(C[C@H](NC(=O)c3c(Cl)cccc3Cl)C(=O)OC(C)C)cc1)c(=O)n2C [compound of the formula (I), isopropyl ester of N-(2,6-dichlorobenzoyl)-4-[6-(methylamino)methyl-1-methyl-2,4-dioxo-1,4-dihydroquinazoline-3(2H)-yl]-L-phenylalanine]",≥ 150
not observed,no difference,CNCc1ccc2c(c1)c(=O)n(-c1ccc(C[C@H](NC(=O)c3c(Cl)cccc3Cl)C(=O)OC(C)C)cc1)c(=O)n2C [crystal form Cl5],–
